Source: PubChem BioAssay (NCI)
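Method: 48-hour compound exposure of cells in 96-well plates, five concentrations, linear interpolation of endpoints. Abbreviation: GI50, concentration required for 50% inhibition of growth. Definition used: TGI = concentration required for complete inhibition of growth.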

What was measured:
Test in all cases: inhibition of tumour cell growth, NCI panel, 48 h
SK-MEL-5 melanoma = system: SK-MEL-5 melanoma
NCI-H460 lung = system: NCI-H460 lung
HT29 colon = system: HT29 colon
SNB-19 CNS = system: SNB-19 CNS
SF-295 CNS = system: SF-295 CNS
HL-60(TB) leukemia = system: HL-60(TB) leukemia
RPMI-8226 leukemia = system: RPMI-8226 leukemia
SR leukemia = system: SR leukemia
CAKI-1 renal = system: CAKI-1 renal
BT-549 breast = system: BT-549 breast

Compound | TGI (SK-MEL-5 melanoma) | TGI (NCI-H460 lung) | TGI (HT29 colon) | TGI (SNB-19 CNS) | TGI (SF-295 CNS) | TGI (HL-60(TB) leukemia) | TGI (RPMI-8226 leukemia) | TGI (SR leukemia) | TGI (CAKI-1 renal) | GI50 (SK-MEL-5 melanoma) | GI50 (NCI-H460 lung) | GI50 (HT29 colon) | GI50 (SNB-19 CNS) | GI50 (SF-295 CNS) | GI50 (HL-60(TB) leukemia) | GI50 (RPMI-8226 leukemia) | GI50 (SR leukemia) | GI50 (CAKI-1 renal) | GI50 (BT-549 breast) | TGI (BT-549 breast)
CC1(C)C(=O)C(C)(C)C1=NNC(N)=S | > 100 µM | > 100 µM | > 100 µM | > 100 µM | > 100 µM | > 100 µM | > 100 µM | > 100 µM | > 100 µM | – | – | – | – | – | – | – | – | – | – | –
c1ccc2c(c1)Cc1c(Cc3csc4ccccc34)ccc3cccc-2c13 | > 100 µM | > 100 µM | > 100 µM | > 100 µM | > 100 µM | > 100 µM | > 100 µM | – | – | – | – | – | – | – | – | – | – | – | – | –
COc1cc2c3c(n(CCCNCCCNCCN)c(=O)c2cc1OC)-c1cc2c(cc1C3=O)OCO2 | > 100 µM | > 100 µM | 95.2 µM | > 100 µM | > 100 µM | > 100 µM | 49 µM | 43.9 µM | > 100 µM | 35.7 µM | > 100 µM | 20.9 µM | 53.9 µM | > 100 µM | 46.9 µM | 17.2 µM | 9.86 µM | 87.8 µM | – | –
O=C(CCC(=O)Nc1cccc(C(F)(F)F)c1)CC(=O)c1ccc2ccccc2c1 | > 100 µM | > 100 µM | > 100 µM | > 100 µM | > 100 µM | > 100 µM | > 100 µM | – | > 100 µM | – | – | – | – | – | – | – | – | – | – | –
COc1ccc(-c2cn(-c3ccc(OC)c(OC)c3)c(=O)[nH]2)cc1 | > 100 µM | > 100 µM | > 100 µM | > 100 µM | > 100 µM | > 100 µM | > 100 µM | – | > 100 µM | 63.3 µM | > 100 µM | 65.1 µM | > 100 µM | > 100 µM | 36.9 µM | > 100 µM | – | > 100 µM | – | –
[N-]=[N+]=NCCCn1c2c(c3ccc([N+](=O)[O-])cc3c1=O)C(=O)c1cc(-c3ccccc3)ccc1-2 | > 100 µM | > 100 µM | > 100 µM | > 100 µM | > 100 µM | – | > 100 µM | > 100 µM | > 100 µM | 89 µM | > 100 µM | > 100 µM | > 100 µM | > 100 µM | – | > 100 µM | 37.2 µM | > 100 µM | > 100 µM | > 100 µM
CC1=CP(=O)(c2ccccc2)C=C(C)C1=C(Cl)Cl (configuration not stated) | 31.2 µM | 59.1 µM | 13.1 µM | 32.8 µM | 34.6 µM | 5.61 µM | 11.5 µM | – | – | – | – | – | – | – | – | – | – | – | – | –
CC(C)COC1Sc2ccccc2S1 | – | 24.6 µM | 36.6 µM | 32.8 µM | 31.3 µM | – | > 100 µM | – | 52.4 µM | – | – | – | – | – | – | – | – | – | – | –
O=C1Nc2ccccc2/C1=C\c1nc(-c2ccccc2F)n2ccccc12 | 11.4 µM | 5.14 µM | 12.1 µM | 16.7 µM | 13.7 µM | > 100 µM | > 100 µM | 29.4 µM | – | 2.8 µM | 2.17 µM | 3.5 µM | 4.7 µM | 3.68 µM | 24.9 µM | 51.4 µM | 11 µM | – | 3.37 µM | 12.9 µM
